From US20240352021A1 (DANA-FARBER CANCER INSTITUTE, INC., priority 2021, published 2024)

How the values were obtained:
EGFR L858R = EGFR L858R (Homo sapiens, UniProt P00533, L858R); experiment: EGFR biochemical assay (headed HTRF-based; method describes Z'-LYTE), L858R; settings: Table 4
Method: (§1) To measure the IC50 values of compounds herein against EGFR, a Z′-LYTE assay (ThermoFisher) was used. Briefly, 2.5 μL of different concentrations of the compounds in 4% DMSO were added to 5 μL kinase/peptide mixture in each well of a 384-well plate (Corning Cat. #3676). 2.5 μL of 4× ATP solution (4× ATP, 50 mM HEPES, pH 7.5, 0.01% BRIJ-35, 10 mM MgCl2, 1 mM EGTA) were added to each well. The plate was shaken for 30 seconds, and then incubated at room temperature for 60 minutes. 5 μL of a 1:100000 dilution of Development Reagent A was added to each well. The plate was then incubated for 60 mins at room temperature. 5 μL of the stop reagent was then added. The plate was subsequently read on a fluorescence plate reader, and the emissions ratio was calculated to determine the ratio of Ser/Thr 07 phosphorylated by the reaction. Emissions Ratio═Coumarin Emission (443 nm)/Flourescein Emission (520 nm).
(§2) HTRF-based EGFR assay data are provided below in Table 4.

EGFR L858R/T790M = EGFR L858R/T790M (Homo sapiens, UniProt P00533, L858R/T790M); experiment: EGFR biochemical assay (headed HTRF-based; method describes Z'-LYTE), L858R/T790M; settings: Table 4
EGFR L858R/T790M, sequence (P00533 25-1210 T790M/L858R): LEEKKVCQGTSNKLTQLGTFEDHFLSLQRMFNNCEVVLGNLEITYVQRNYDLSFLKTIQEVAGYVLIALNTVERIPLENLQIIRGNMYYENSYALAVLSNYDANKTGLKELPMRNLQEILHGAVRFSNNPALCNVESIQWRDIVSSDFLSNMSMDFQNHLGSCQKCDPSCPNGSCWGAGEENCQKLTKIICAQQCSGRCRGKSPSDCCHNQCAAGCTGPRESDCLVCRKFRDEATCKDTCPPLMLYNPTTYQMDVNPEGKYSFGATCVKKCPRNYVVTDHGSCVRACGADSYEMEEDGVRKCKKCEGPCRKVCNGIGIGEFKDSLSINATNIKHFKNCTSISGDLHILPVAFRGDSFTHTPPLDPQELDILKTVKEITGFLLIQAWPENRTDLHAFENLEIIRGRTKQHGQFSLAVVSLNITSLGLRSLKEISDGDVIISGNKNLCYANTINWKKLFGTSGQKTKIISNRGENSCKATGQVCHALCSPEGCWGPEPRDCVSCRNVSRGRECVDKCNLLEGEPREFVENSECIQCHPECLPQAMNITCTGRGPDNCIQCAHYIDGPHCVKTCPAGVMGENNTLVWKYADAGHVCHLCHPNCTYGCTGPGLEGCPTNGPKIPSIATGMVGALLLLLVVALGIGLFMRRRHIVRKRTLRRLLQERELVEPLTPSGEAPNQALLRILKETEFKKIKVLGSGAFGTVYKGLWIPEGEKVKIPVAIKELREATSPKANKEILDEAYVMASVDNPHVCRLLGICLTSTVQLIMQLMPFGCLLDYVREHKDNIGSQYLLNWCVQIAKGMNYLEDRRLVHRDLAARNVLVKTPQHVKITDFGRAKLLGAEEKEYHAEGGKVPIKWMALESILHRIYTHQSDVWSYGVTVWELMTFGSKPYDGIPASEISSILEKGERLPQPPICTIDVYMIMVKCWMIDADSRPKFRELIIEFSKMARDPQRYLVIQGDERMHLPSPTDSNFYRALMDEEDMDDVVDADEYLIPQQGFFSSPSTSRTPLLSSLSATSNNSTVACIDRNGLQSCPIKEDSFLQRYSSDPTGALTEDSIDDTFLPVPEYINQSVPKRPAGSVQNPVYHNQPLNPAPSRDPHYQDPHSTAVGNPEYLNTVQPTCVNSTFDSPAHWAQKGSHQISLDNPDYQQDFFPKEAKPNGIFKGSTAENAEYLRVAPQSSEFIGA
Method: as §1, §2

[1] = target: EGFR mutant L858R Ba/F3 cells (Homo sapiens, UniProt P00533, L858R, cells depend on it); experiment: Ba/F3 cell proliferation (Cell Titer Glo), EGFR L858R; type: cell-based, murine; settings: 72 hours, Table 6, read-out: L858R BaF3
EGFR mutant L858R Ba/F3 cells, sequence (P00533 whole entry L858R): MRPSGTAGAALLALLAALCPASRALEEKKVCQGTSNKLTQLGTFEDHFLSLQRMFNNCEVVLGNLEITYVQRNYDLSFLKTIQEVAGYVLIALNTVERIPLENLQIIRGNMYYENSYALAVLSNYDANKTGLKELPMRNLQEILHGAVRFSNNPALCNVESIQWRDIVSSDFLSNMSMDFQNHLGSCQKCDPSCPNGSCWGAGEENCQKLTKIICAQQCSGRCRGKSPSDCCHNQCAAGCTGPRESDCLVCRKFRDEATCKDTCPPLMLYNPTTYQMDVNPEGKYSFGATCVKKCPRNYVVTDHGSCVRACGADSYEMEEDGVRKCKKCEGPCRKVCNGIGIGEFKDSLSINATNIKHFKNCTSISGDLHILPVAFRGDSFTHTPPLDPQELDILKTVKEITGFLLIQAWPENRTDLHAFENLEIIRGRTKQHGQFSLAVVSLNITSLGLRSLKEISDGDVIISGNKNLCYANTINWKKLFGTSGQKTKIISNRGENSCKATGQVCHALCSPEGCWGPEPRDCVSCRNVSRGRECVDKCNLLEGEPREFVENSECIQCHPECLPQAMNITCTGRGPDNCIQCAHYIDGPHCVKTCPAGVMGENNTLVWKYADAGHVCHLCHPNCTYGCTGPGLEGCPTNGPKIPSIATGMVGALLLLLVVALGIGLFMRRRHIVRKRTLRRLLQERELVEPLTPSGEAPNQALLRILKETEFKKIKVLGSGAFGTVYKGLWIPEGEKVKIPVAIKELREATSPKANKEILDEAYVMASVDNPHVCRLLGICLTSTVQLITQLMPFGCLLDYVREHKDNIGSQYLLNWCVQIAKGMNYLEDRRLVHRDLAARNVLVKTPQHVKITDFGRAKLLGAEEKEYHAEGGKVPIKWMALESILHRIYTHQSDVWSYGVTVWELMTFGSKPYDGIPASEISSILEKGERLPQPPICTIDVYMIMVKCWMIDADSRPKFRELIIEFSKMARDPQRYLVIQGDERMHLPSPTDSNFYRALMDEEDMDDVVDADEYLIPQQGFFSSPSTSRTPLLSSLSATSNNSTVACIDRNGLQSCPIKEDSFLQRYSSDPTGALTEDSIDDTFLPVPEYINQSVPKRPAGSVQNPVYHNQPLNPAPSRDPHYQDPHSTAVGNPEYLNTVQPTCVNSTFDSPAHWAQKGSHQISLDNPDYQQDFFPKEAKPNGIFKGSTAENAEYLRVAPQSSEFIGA
Procedure, shortened: (§3)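 Retrovirally transduced, puromycin-selected Ba/F3 cells expressing EGFR L858R or L858R/C797S, grown in RPMI + 10% FBS, exposed to compounds for 72 h in triplicate. Viability by Cell Titer Glo ATP luminescence; IC50 from sigmoidal dose-response fit, binned A <0.1, B 0.1–0.5, C 0.5–2.5, D ≥2.5 μM.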

[2] = target: EGFR L858R/C797S Ba/F3 cells (Homo sapiens, UniProt P00533, C797S/L858R, cells depend on it); experiment: Ba/F3 cell proliferation (Cell Titer Glo), EGFR L858R/C797S; type: cell-based, murine; settings: 72 hours, Table 6
EGFR L858R/C797S Ba/F3 cells, sequence (P00533 whole entry C797S/L858R): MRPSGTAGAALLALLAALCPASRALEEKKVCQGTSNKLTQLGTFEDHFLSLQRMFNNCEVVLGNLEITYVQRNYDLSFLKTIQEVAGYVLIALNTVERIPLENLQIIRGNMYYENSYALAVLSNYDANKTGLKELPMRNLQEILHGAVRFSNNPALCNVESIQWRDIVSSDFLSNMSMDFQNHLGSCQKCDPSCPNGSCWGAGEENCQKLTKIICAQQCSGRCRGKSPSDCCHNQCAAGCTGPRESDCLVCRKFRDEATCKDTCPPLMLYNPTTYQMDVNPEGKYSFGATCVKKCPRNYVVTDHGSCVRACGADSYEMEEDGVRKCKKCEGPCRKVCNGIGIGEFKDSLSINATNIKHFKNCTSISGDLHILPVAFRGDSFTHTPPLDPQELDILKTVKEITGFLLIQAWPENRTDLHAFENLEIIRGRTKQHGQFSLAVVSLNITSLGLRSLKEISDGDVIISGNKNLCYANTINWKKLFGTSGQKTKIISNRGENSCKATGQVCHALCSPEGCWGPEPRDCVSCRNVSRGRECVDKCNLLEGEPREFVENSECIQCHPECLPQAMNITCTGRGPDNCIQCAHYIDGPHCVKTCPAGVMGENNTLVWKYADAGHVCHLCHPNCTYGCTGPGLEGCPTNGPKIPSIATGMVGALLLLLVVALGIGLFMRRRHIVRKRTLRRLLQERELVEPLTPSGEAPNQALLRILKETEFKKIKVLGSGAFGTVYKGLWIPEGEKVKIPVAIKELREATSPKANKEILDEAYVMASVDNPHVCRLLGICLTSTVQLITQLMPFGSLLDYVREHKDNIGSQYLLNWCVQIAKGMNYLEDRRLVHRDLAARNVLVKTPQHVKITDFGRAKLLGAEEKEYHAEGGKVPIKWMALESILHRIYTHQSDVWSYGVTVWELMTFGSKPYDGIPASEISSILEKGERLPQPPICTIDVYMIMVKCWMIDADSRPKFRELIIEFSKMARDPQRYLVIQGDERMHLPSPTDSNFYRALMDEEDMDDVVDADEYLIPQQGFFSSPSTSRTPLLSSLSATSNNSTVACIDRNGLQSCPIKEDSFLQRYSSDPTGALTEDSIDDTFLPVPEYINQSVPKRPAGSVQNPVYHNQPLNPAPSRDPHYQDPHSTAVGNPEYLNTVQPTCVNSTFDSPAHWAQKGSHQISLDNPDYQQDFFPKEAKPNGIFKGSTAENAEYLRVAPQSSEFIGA
Procedure, shortened: as §3

EGFR L858R, sequence (P00533 25-1210 L858R): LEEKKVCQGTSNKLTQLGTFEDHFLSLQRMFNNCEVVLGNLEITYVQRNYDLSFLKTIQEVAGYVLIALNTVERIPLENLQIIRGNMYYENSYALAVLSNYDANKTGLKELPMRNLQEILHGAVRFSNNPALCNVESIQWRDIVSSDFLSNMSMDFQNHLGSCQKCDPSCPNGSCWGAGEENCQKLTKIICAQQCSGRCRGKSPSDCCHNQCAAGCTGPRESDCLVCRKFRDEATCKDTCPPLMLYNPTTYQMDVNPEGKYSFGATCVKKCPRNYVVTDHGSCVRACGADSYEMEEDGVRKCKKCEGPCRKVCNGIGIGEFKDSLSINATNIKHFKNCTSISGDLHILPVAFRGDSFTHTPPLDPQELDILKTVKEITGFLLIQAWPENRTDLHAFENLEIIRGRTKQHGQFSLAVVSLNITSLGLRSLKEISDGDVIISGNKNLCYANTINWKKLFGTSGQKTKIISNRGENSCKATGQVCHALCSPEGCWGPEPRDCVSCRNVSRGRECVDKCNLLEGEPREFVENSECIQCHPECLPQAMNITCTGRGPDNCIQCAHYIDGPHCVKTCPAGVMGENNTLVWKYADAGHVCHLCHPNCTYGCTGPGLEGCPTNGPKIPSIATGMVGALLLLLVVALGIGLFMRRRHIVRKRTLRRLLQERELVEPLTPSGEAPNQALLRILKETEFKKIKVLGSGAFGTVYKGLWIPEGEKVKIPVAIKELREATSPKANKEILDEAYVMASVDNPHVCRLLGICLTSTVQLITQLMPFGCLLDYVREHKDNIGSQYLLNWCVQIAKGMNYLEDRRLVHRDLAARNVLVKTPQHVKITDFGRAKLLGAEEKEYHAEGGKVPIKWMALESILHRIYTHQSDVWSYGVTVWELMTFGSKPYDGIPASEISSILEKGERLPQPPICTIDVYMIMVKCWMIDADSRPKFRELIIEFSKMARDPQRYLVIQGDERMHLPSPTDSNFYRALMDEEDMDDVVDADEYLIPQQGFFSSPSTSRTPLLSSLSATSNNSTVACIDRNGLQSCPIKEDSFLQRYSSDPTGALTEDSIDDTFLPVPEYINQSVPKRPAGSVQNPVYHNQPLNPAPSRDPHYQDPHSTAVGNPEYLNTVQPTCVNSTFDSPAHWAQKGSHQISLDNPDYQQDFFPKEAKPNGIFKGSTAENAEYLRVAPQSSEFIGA

| IC50 (EGFR L858R) [nM] | IC50 (EGFR L858R/T790M) [nM] | GI50 [1] [nM] | GI50 [2] [nM] | SMILES |
| --- | --- | --- | --- | --- |
| 1.13 | 10 | < 100 | < 100 | C=CC(=O)N1CCC(N2Cc3cnc(Nc4ccc(N5CCN(C)CC5)cc4)nc3N(C)C2=O)c2cccc(O)c21 (centres unmarked) [Compound 133] |
| > 1000 | > 1000 | 500 to 2500 | ≥ 2500 | C=CC(=O)N1CCC12CC(N1Cc3cnc(Nc4ccc(N5CCN(C)CC5)cc4)nc3N(C)C1=O)C2 (stereo not drawn) [Compound 142, 1-methyl-7-[4-(4-methylpiperazin-1-yl)anilino]-S-(1-prop-2-enoyl-1-azaspiro[3.3]heptan-6-yl)-4H-pyrimido[4,5-d]pyrimidin-2-one] |
| > 100 | > 100 | ≥ 2500 | ≥ 2500 | C=CC(=O)N1CC[C@H](N2Cc3cnc(Nc4cnn(CCO)c4)nc3N(C)C2=O)[C@@H]2CCC[C@@H]21 [Compound 126, 7-[[1-(2-hydroxyethyl)pyrazol-4-yl]amino]-1-methyl-S-(1-prop-2-enoyl-2,3,4,4a, 5,6,7,7a-octahydrocyclopenta[b]pyridin-4-yl)-4H-pyrimido[4,5-d]pyrimidin-2-one] |
| > 1000 | > 1000 | 500 to 2500 | ≥ 2500 | C=CC(=O)N1CCC(N2Cc3cnc(Nc4ccc(N5CCN(C)CC5)cc4)nc3N(C)C2=O)c2cccc(Cl)c21 (centres unmarked) [Compound 147, 3-(8-chloro-1-prop-2-enoyl-3,4-dihydro-2H-quinolin-4-yl)-1-methyl-7-[4-(4-methylpiperazin-1-yl)anilino]-4H-pyrimido[4,5-d]pyrimidin-2-one] |
| 1.07 | 0.71 | < 100 | < 100 | C=CC(=O)Nc1cccc(N2C(=O)N(C3CCN(C(=O)C=C)c4ccccc43)Cc3cnc(Nc4ccc(N5CCN(C)CC5)cc4)nc32)c1 (stereo not drawn) [Compound 158, N-[3-[7-[4-(4-methylpiperazin-1-yl)anilino]-2-oxo-S-(1-prop-2-enoyl-3,4-dihydro-2H-quinolin-4-yl)-4H-pyrimido[4,5-d]pyrimidin-1-yl]phenyl]prop-2-enamide] |
| 0.88 | > 1000 | < 100 | < 100 | C=CC(=O)N1CC[C@H](N2Cc3cnc(Nc4ccc(N5CCN(C)CC5)cc4)nc3N(CCO)C2=O)c2cccc(C)c21 [Compound 153, 1-(2-hydroxyethyl)-7-[4-(4-methylpiperazin-1-yl)anilino]-S-[(4S)-8-methyl-1-prop-2-enoyl-3,4-dihydro-2H-quinolin-4-yl]-4H-pyrimido[4,5-d]pyrimidin-2-one] |
| > 100 | > 100 | 500 to 2500 | ≥ 2500 | C=CC(=O)N1CCC(N2Cc3cnc(Nc4ccc(N5CCN(C)CC5)cc4)nc3N(C)C2=O)C(c2ccccc2)C1 (centres unmarked) [Compound 159] |
| > 100 | > 100 | ≥ 2500 | ≥ 2500 | C=C(F)C(=O)N1CC[C@H](N2Cc3cnc(Nc4cnn(CCO)c4)nc3N(C)C2=O)c2cccc(OC)c21 (single isomer, unassigned) [Compound 120] |
| 0.89 | > 1000 | < 100 | < 100 | C=CC(=O)N1c2ccccc2[C@@H](N2Cc3cnc(Nc4ccc(N5CCN(C)CC5)cc4)nc3N(C)C2=O)C[C@@H]1C [Compound 135, 1-methyl-7-[4-(4-methylpiperazin-1-yl)anilino]-3-[(2S,4S)-2-methyl-1-prop-2-enoyl-3,4-dihydro-2H-quinolin-4-yl]-4H-pyrimido[4,5-d]pyrimidin-2-one] |
| > 1000 | > 1000 | ≥ 2500 | ≥ 2500 | C=CC(=O)N1CCC(N2Cc3cnc(Nc4ccc(N5CCN(C)CC5)cc4)nc3N(C)C2=O)[C@@H](N)C1 (stereo in doubt) [Compound 149, rel-(3S,4S)—S-(3-amino-1-prop-2-enoyl-4-piperidyl)-1-methyl-7-[4-(4-methylpiperazin-1-yl)anilino]-4H-pyrimido[4,5-d]pyrimidin-2-one] |
| > 100 | > 100 | ≥ 2500 | ≥ 2500 | C=C(F)C(=O)N1CCC(N2Cc3cnc(Nc4cnn(CCO)c4)nc3-n3ccnc32)c2ccccc21 (centres unmarked) [001A] |
| 1.77 | > 1000 | < 100 | < 100 | C=CC(=O)N1CC[C@H](N2Cc3cnc(Nc4ccc(CS(=O)(=O)NC)cc4)nc3N(C)C2=O)c2cccc(C)c21 [Compound 145] |
| > 1000 | > 1000 | ≥ 2500 | ≥ 2500 | C=CC(=O)N1CC[C@H](N2Cc3cnc(Nc4ccc(N5CCN(C)CC5)cc4)nc3N(C)C2=O)[C@H](N)C1 (relative stereo) [Compound 148, rel-(3R,4S)—S-(3-amino-1-prop-2-enoyl-4-piperidyl)-1-methyl-7-[4-(4-methylpiperazin-1-yl)anilino]-4H-pyrimido[4,5-d]pyrimidin-2-one] |
| > 1000 | > 1000 | 500 to 2500 | ≥ 2500 | C=CC(=O)N1CCC(N2Cc3cnc(Nc4ccc(N5CCN(C)CC5)cc4)nc3N(C)C2=O)c2cccc(C(F)(F)F)c21 (stereo not drawn) [Compound 143, 1-methyl-7-[4-(4-methylpiperazin-1-yl)anilino]-S-[1-prop-2-enoyl-8-(trifluoromethyl)-3,4-dihydro-2H-quinolin-4-yl]-4H-pyrimido[4,5-d]pyrimidin-2-one] |
| 0.18 | 1.18 | < 100 | < 100 | C=CC(=O)N1CCC(N2Cc3cnc(Nc4ccc(N5CCN(C)CC5)cc4)nc3N(C)C2=O)c2cccc(O)c21 (single isomer, unassigned) [Compound 156] |
| > 100 | > 100 | ≥ 2500 | ≥ 2500 | C=CC(=O)N1CCC2(N3Cc4cnc(Nc5ccc(OCCN6CCCC6)cc5)nc4N(C)C3=O)CC2C1 (stereo not drawn) [Compound 121, 1-methyl-S-(3-prop-2-enoyl-S-azabicyclo[4.1.0]heptan-6-yl)-7-[4-(2-pyrrolidin-1-ylethoxy)anilino]-4H-pyrimido[4,5-d]pyrimidin-2-one] |
| > 1000 | > 1000 | ≥ 2500 | ≥ 2500 | C=C(CN1CCC(N2Cc3cnc(Nc4ccc(N5CCN(C)CC5)cc4)nc3N(C)C2=O)C1)C(=O)O (centres unmarked) [Compound 136, 2-[[3-[1-methyl-7-[4-(4-methylpiperazin-1-yl)anilino]-2-oxo-4H-pyrimido[4,5-d]pyrimidin-S-yl]pyrrolidin-1-yl]methyl]prop-2-enoic acid] |
| > 100 | > 100 | ≥ 2500 | ≥ 2500 | C=C(F)C(=O)N1CC[C@@H](N2Cc3cnc(Nc4cnn(CCO)c4)nc3N(C)C2=O)c2cccc(OC)c21 (single isomer, unassigned) [Compound 119] |
| 12.3 | 85.7 | < 100 | 100 to 500 | C=CC(=O)N1CC[C@@H](N2Cc3cnc(Nc4ccc(N5CCN(C)CC5)cc4)nc3N(C)C2=O)c2cccc(O)c21 (single isomer, unassigned) [Compound 155] |
| > 100 | > 100 | ≥ 2500 | ≥ 2500 | C=CC(=O)N1CCC(C)(N2Cc3cnc(Nc4cnn(CCO)c4)nc3N(C)C2=O)CC1 [Compound 125, 7-[[1-(2-hydroxyethyl)pyrazol-4-yl]amino]-1-methyl-S-(4-methyl-1-prop-2-enoyl-4-piperidyl)-4H-pyrimido[4,5-d]pyrimidin-2-one] |
| > 1000 | > 1000 | ≥ 2500 | ≥ 2500 | C=C1CC[C@H]2C[C@@H](N3Cc4cnc(Nc5ccc(N6CCN(C)CC6)cc5)nc4N(C)C3=O)CCN2C1=O [Compound 157, 1-methyl-S-(7-methylene-6-oxo-2,3,4,8,9,9a-hexahydro-1 H-quinolizin-2-yl)-7-[4-(4-methylpiperazin-1-yl)anilino]-4H-pyrimido[4,5-d]pyrimidin-2-one] |
| > 1000 | > 1000 | 100 to 500 | 100 to 500 | C=CC(=O)N1CCC(N2Cc3cnc(Nc4ccc(N5CCN(C)CC5)cc4)nc3N(C)C2=O)c2cnn(C)c21 (stereo not drawn) [Compound 132, 1-methyl-7-[4-(4-methylpiperazin-1-yl)anilino]-S-(1-methyl-7-prop-2-enoyl-5,6-dihydro-4H-pyrazolo[3,4-b]pyridin-4-yl)-4H-pyrimido[4,5-d]pyrimidin-2-one] |
| > 1000 | > 1000 | ≥ 2500 | ≥ 2500 | C=C(CN1CC(N2Cc3cnc(Nc4ccc(N5CCN(C)CC5)cc4)nc3N(C)C2=O)C1)C(=O)O [Compound 137, 2-[[3-[1-methyl-7-[4-(4-methylpiperazin-1-yl)anilino]-2-oxo-4H-pyrimido[4,5-d]pyrimidin-S-yl]azetidin-1-yl]methyl]prop-2-enoic acid] |
